Experimental data taken from US4468469A, “Substituted phenylacetic acids and salts as TBP blocking agents in iodothyronine immunoassays” (Miles Laboratories, Inc., priority 1982, dated 1984).

System: anti(thyroxine) antiserum / apoglucose oxidase
Test: Apoenzyme reactivation immunoassay system for serum thyroxine
Assay type: biochemical
Conditions: 2 mM sodium salt of dissociating agent in buffer
Protocol: Standard curves for serum thyroxine were generated using a semiautomated assay protocol on the Gilford Clinical Chemistry Analyzer System 203-S (Gilford Instrument Laboratories, Oberline, OH, USA). […] The FAD-thyroxine conjugate (40 nM in 0.1M sodium phosphate, pH 7.0, 0.01% Triton X-100) as a 0.05 ml aliquot was added to the reaction cup and allowed to equilibrate for 30 seconds. The reaction was initiated by addition of 0.10 ml 1.0 μM apoglucose oxidase, 2 mM 4-aminoantipyrine, 12% glycerol, 80 mM sodium phosphate, pH 7.0. The absorbance at 520 nm was recorded after an 8 minute incubation.

For O=C(O)Cc1ccccc1Oc1ccc(Cl)cc1Cl [Fenclofenac, 2-(2,4-dichlorophenoxy)phenylacetic acid], which “Absorbance (520 nm)” value (Thyroxine Standard 0 μg/L) is on record?
The value was 0.797.

And the “Absorbance (520 nm)” value (Thyroxine Standard 25 μg/L)?
Its value is 0.823.

And the “Absorbance (520 nm)” value (Thyroxine Standard 75 μg/L)?
Its value is 0.893.

And the “Absorbance (520 nm)” value (Thyroxine Standard 125 μg/L)?
The value was 0.965.

What about the “Absorbance (520 nm)” value (Thyroxine Standard 200 μg/L) of the same compound?
Its value is 1.078.
